# In ChEMBL document CHEMBL1201862, “PubChem BioAssay data set” (2004):
#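 48-hour exposure; five concentrations; linearly interpolated endpoints. At the GI50, growth is halved.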 Calls of active or inactive are those of the source. No stated cut-off is given here; in the data, active = GI50 up to about 1.1 µM and inactive = higher.
# Assays:
# Assay in all cases: growth of human tumour cells (NCI), 48 h
# Hs-578T = test system: Hs-578T
# MCF7 = test system: MCF7
# SK-MEL-5 = test system: SK-MEL-5
# SR = test system: SR
# HCC 2998 = test system: HCC 2998
# SK-MEL-2 = test system: SK-MEL-2
# NCI-H226 = test system: NCI-H226
# KM12 = test system: KM12
# BT-549 = test system: BT-549
# RXF 393 = test system: RXF 393
# OVCAR-3 = test system: OVCAR-3
# NCI-H23 = test system: NCI-H23
# OVCAR-5 = test system: OVCAR-5
# HL-60 = test system: HL-60
# A549 = test system: A549
# HCT-116 = test system: HCT-116
# U-251 = test system: U-251
# SNB-19 = test system: SNB-19
# OVCAR-4 = test system: OVCAR-4
# T47D = test system: T47D
# SK-MEL-28 = test system: SK-MEL-28
# DU-145 = test system: DU-145
# OVCAR-8 = test system: OVCAR-8
# IGROV-1 = test system: IGROV-1
# ACHN = test system: ACHN
# SF-295 = test system: SF-295
# NCI-H460 = test system: NCI-H460
# COLO 205 = test system: COLO 205
# EKVX = test system: EKVX
# SK-OV-3 = test system: SK-OV-3
# MDA-N = test system: MDA-N
# PC-3 = test system: PC-3
# HOP-92 = test system: HOP-92
# UO-31 = test system: UO-31
# A498 = test system: A498
# NCI-H522 = test system: NCI-H522
# Malme-3M = test system: Malme-3M
# UACC-257 = test system: UACC-257
# CCRF-CEM = test system: CCRF-CEM
# SN12C = test system: SN12C
# 786-0 = test system: 786-0
# NCI/ADR-RES = test system: NCI/ADR-RES
# SF-268 = test system: SF-268
# SW-620 = test system: SW-620
# TK-10 = test system: TK-10
# M14 = test system: M14
# SNB-75 = test system: SNB-75
# SF-539 = test system: SF-539
# MDA-MB-231 = test system: MDA-MB-231
# RPMI-8226 = test system: RPMI-8226
# MOLT-4 = test system: MOLT-4
# MDA-MB-435 = test system: MDA-MB-435
# K562 = test system: K562
# HOP-62 = test system: HOP-62
# HCT-15 = test system: HCT-15
# LOX IMVI = test system: LOX IMVI
# UACC-62 = test system: UACC-62
# CAKI-1 = test system: CAKI-1
# HT-29 = test system: HT-29
compound,measurement,setting,value
CC(=O)OCC1OC(n2c(S)nc(-c3ccccc3)c(C#N)c2=O)C(OC(C)=O)C(OC(C)=O)C1OC(C)=O (stereo not drawn),GI50,Hs-578T,> 100 µM (inactive)
same,GI50,MCF7,> 100 µM (inactive)
same,GI50,SK-MEL-5,> 100 µM (inactive)
same,GI50,SR,> 100 µM (inactive)
same,GI50,HCC 2998,> 100 µM (inactive)
same,GI50,SK-MEL-2,> 100 µM (inactive)
same,GI50,NCI-H226,> 100 µM (inactive)
same,GI50,KM12,> 100 µM (inactive)
same,GI50,BT-549,> 100 µM (inactive)
same,GI50,RXF 393,> 100 µM (inactive)
same,GI50,OVCAR-3,> 100 µM (inactive)
same,GI50,NCI-H23,> 100 µM (inactive)
same,GI50,OVCAR-5,> 100 µM (inactive)
same,GI50,HL-60,> 100 µM (inactive)
same,GI50,A549,> 100 µM (inactive)
same,GI50,HCT-116,> 100 µM (inactive)
same,GI50,U-251,> 100 µM (inactive)
same,GI50,SNB-19,> 100 µM (inactive)
same,GI50,OVCAR-4,> 100 µM (inactive)
same,GI50,T47D,> 100 µM (inactive)
same,GI50,SK-MEL-28,> 100 µM (inactive)
same,GI50,DU-145,> 100 µM (inactive)
same,GI50,OVCAR-8,> 100 µM (inactive)
same,GI50,IGROV-1,> 100 µM (inactive)
same,GI50,ACHN,> 100 µM (inactive)
same,GI50,SF-295,> 100 µM (inactive)
same,GI50,NCI-H460,> 100 µM (inactive)
same,GI50,COLO 205,> 100 µM (inactive)
same,GI50,EKVX,> 100 µM (inactive)
same,GI50,SK-OV-3,> 100 µM (inactive)
same,GI50,MDA-N,> 100 µM (inactive)
same,GI50,PC-3,> 100 µM (inactive)
same,GI50,HOP-92,> 100 µM (inactive)
same,GI50,UO-31,> 100 µM (inactive)
same,GI50,A498,> 100 µM (inactive)
same,GI50,NCI-H522,> 100 µM (inactive)
same,GI50,Malme-3M,> 100 µM (inactive)
same,GI50,UACC-257,> 100 µM (inactive)
same,GI50,CCRF-CEM,> 100 µM (inactive)
same,GI50,SN12C,> 100 µM (inactive)
same,GI50,786-0,> 100 µM (inactive)
same,GI50,NCI/ADR-RES,> 100 µM (inactive)
same,GI50,SF-268,> 100 µM (inactive)
same,GI50,SW-620,> 100 µM (inactive)
same,GI50,TK-10,> 100 µM (inactive)
same,GI50,M14,> 100 µM (inactive)
same,GI50,SNB-75,98.9 µM (inactive)
same,GI50,SF-539,> 100 µM (inactive)
same,GI50,MDA-MB-231,> 100 µM (inactive)
same,GI50,RPMI-8226,> 100 µM (inactive)
same,GI50,MOLT-4,> 100 µM (inactive)
same,GI50,MDA-MB-435,> 100 µM (inactive)
same,GI50,K562,> 100 µM (inactive)
same,GI50,HOP-62,> 100 µM (inactive)
same,GI50,HCT-15,> 100 µM
same,GI50,LOX IMVI,> 100 µM (inactive)
same,GI50,UACC-62,> 100 µM (inactive)
same,GI50,CAKI-1,> 100 µM (inactive)
same,GI50,HT-29,> 100 µM (inactive)
C[C@]12CC[C@@H]3c4ccc(OC(=O)c5ccccc5)cc4CC[C@H]3[C@@H]1CCC2OC(=O)c1cccc2c(=O)c3ccccc3[nH]c12 (stereo partly drawn),GI50,Hs-578T,18.1 µM (inactive)
same,GI50,MCF7,12.2 µM (inactive)
same,GI50,SK-MEL-5,24.1 µM (inactive)
same,GI50,SR,25.8 µM (inactive)
same,GI50,HCC 2998,15.2 µM (inactive)
same,GI50,SK-MEL-2,14.1 µM (inactive)
same,GI50,NCI-H226,17.9 µM (inactive)
same,GI50,KM12,15.4 µM (inactive)
same,GI50,BT-549,18.2 µM (inactive)
same,GI50,RXF 393,14.4 µM (inactive)
same,GI50,OVCAR-3,26.1 µM (inactive)
same,GI50,NCI-H23,20.8 µM (inactive)
same,GI50,OVCAR-5,18.2 µM (inactive)
same,GI50,HL-60,18.8 µM (inactive)
same,GI50,A549,14.2 µM (inactive)
same,GI50,HCT-116,16.4 µM (inactive)
same,GI50,U-251,15.7 µM (inactive)
same,GI50,SNB-19,27.4 µM (inactive)
same,GI50,OVCAR-4,15.6 µM (inactive)
same,GI50,T47D,26.4 µM (inactive)
same,GI50,SK-MEL-28,15.8 µM (inactive)
same,GI50,DU-145,19.8 µM (inactive)
same,GI50,OVCAR-8,18.3 µM (inactive)
same,GI50,IGROV-1,16.5 µM (inactive)
same,GI50,ACHN,22.3 µM (inactive)
same,GI50,SF-295,18.2 µM (inactive)
same,GI50,NCI-H460,17.4 µM (inactive)
same,GI50,COLO 205,16.9 µM (inactive)
same,GI50,EKVX,9.38 µM (inactive)
same,GI50,SK-OV-3,30.4 µM (inactive)
same,GI50,MDA-N,11.1 µM (inactive)
same,GI50,PC-3,13.4 µM (inactive)
same,GI50,HOP-92,18 µM (inactive)
same,GI50,UO-31,27.6 µM (inactive)
same,GI50,A498,26 µM (inactive)
same,GI50,NCI-H522,23.3 µM (inactive)
same,GI50,Malme-3M,24.5 µM (inactive)
same,GI50,UACC-257,20.3 µM (inactive)
same,GI50,CCRF-CEM,24.7 µM (inactive)
same,GI50,SN12C,14.4 µM (inactive)
same,GI50,786-0,17.5 µM (inactive)
same,GI50,NCI/ADR-RES,18 µM (inactive)
same,GI50,SF-268,22.8 µM (inactive)
same,GI50,SW-620,12.1 µM (inactive)
same,GI50,TK-10,19.1 µM (inactive)
same,GI50,M14,17.1 µM (inactive)
same,GI50,SNB-75,23 µM (inactive)
same,GI50,SF-539,16.6 µM (inactive)
same,GI50,MDA-MB-231,20.8 µM (inactive)
same,GI50,RPMI-8226,29.9 µM (inactive)
same,GI50,MOLT-4,63 µM (inactive)
same,GI50,MDA-MB-435,3.77 µM (inactive)
same,GI50,K562,60 µM (inactive)
same,GI50,HOP-62,22.3 µM (inactive)
same,GI50,HCT-15,13.1 µM
same,GI50,LOX IMVI,16.3 µM (inactive)
same,GI50,UACC-62,13.3 µM (inactive)
same,GI50,CAKI-1,27 µM (inactive)
same,GI50,HT-29,7.21 µM (inactive)
